Data set [1] is described as follows: Lipophilicity, log P of the compound. It counts as physicochemical. To be noted: octanol/water.
Data set [2] can be described thus: Metabolic stability in mouse liver microsomes assessed as compound remaining at 1 uM after 30 mins. It counts as ADME, Microsome. Conditions: read-out: Stability. (Liver microsomes are a subcellular fraction often used to study metabolism.)
Data set [3] can be described thus: Metabolic stability in human liver microsomes assessed as compound remaining at 1 uM after 30 mins. To be noted: read-out: Stability. It counts as ADME, Microsome.
The nature of data set [4]: Metabolic stability in rat liver microsomes assessed as compound remaining at 1 uM after 30 mins. The data set is classed as ADME, Microsome. Conditions: read-out: Stability; call rule not given here.
Data set [5] is described as follows: Apparent permeability across apical to basolateral side in […] MDCK2 cells at 5 uM after 120 mins by LC/MS/MS analysis. To be noted: MDCK. The data set is classed as ADME, cell-based, MDCK-II.
In data set [6] the target is Serine/threonine-protein kinase PLK1 (Homo sapiens, UniProt P53350). As to the kind of experiment: Inhibition of GST-tagged Plk1 (unknown origin) assessed as inhibition of DEKTDDED phosphorylation at Thr1342 after 60 mins by TR-FRET assay.
Chain of Serine/threonine-protein kinase PLK1 (P53350 whole entry): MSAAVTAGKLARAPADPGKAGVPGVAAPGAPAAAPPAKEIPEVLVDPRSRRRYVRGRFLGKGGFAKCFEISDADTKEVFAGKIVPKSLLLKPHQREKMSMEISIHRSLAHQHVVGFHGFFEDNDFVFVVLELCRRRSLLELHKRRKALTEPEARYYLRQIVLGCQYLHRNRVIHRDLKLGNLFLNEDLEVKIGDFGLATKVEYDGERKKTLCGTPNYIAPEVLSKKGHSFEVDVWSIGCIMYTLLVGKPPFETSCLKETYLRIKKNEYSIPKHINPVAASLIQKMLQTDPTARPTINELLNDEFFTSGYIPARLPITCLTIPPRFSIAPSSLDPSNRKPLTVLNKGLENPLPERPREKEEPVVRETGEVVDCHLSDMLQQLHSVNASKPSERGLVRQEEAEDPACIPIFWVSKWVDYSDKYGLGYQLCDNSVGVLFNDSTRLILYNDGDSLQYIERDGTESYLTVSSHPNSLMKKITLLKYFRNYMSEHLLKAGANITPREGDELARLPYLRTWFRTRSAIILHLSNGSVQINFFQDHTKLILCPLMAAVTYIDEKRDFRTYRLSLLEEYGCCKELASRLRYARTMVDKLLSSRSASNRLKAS
Data set [7] deals with T1, Serine/threonine-protein kinase PLK2 (Homo sapiens, UniProt Q9NYY3).
T1 sequence (Q9NYY3 whole entry): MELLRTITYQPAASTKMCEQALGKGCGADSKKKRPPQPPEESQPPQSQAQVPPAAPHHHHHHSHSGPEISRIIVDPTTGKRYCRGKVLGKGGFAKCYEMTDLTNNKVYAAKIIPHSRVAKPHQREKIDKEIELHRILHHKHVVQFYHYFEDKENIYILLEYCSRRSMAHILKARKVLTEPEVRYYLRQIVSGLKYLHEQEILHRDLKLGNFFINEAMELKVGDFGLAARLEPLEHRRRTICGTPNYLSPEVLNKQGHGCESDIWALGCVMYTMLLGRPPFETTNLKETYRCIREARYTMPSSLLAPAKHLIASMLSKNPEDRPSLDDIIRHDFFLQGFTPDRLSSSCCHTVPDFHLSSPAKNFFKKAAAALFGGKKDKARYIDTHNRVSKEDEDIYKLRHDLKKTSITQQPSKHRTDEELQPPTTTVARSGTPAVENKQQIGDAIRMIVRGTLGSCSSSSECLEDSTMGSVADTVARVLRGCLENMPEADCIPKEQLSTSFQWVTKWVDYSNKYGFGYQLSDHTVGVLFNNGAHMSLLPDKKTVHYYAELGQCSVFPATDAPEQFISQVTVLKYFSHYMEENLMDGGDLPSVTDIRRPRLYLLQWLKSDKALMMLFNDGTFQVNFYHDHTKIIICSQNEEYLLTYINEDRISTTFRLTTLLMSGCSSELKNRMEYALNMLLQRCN
Description: Inhibition of GST-tagged Plk2 (unknown origin) assessed as inhibition of DEKTDDED phosphorylation at Thr1342 after 60 mins by TR-FRET assay
Data set [8] can be described thus: Solubility of the compound. The data set is classed as physicochemical.
The target of data set [9] is T1, Serine/threonine-protein kinase PLK2. This is another data set of the same source.

In brackets after ≈: the same amount, converted by molar mass.

With `CC[C@@H]1C(=O)N(C)c2cnc(-n3ccnc3-c3ccc(F)cc3)nc2N1c1ccnn1C`, the log partition coefficient (logP) – broadly, the decadic logarithm of the partition coefficient of the neutral form, usually between octanol and water – in data set [1] (read-out: logP) was determined as 1.9. In addition, the results for the remaining at 0.5 h, 1 µM in data set [2], in data set [3] and in data set [4] were 72%, 74% and 80%, respectively.

Turning to `CC[C@@H]1C(=O)N(C)c2cnc(-n3ccnc3-c3ccc(F)cc3)nc2N1c1cn[nH]c1`, the Papp A→B (commonly how fast a substance crosses the layer from the apical side) at 2 h, 5 µM in data set [5] was 8.7 ×10⁻⁶ cm/s. For the same compound, the logP in [1] (read-out: logP) amounted to 1.8. Also, the remaining at 0.5 h, 1 µM is 66% in [2], 73% in [3] and 82% in data set [4].

With `CC[C@@H]1C(=O)N(C)c2cnc(-c3cn[nH]c3-c3nccs3)nc2N1c1cn[nH]c1`, the Papp A→B at 2 h, 5 µM in data set [5] was found to be 6.6 ×10⁻⁶ cm/s. The remaining at 0.5 h, 1 µM is 57% in data set [2], 84% in data set [3] and 48% in [4].

`CC(C)N1c2nc(-n3ccnc3-c3ccc(F)cc3)ncc2N(C)C(=O)C1(C)C`: the IC50 (as a rule, the concentration needed to halve the response being measured) in data set [6] is greater than 100000 nM; in data set [7], 2710 nM. In addition, the remaining at 0.5 h, 1 µM in data set [2] came out at 25%; in data set [3], 54%; in [4], 10%.

On to `CC[C@@H]1C(=O)N(C)c2cnc(-n3ccnc3-c3ccccc3)nc2N1C(C)C`, for which, in data set [1], the logP entry is “Not Active”. In addition, the remaining at 0.5 h, 1 µM in data set [2] was found to be 12%; in data set [3], 14%; in data set [4], 0%.

For the compound `CCC1C(=O)N(C)c2cnc(-c3cn[nH]c3-c3ccccn3)nc2N1c1cnn(C)c1` (racemic), the Papp A→B at 2 h, 5 µM in data set [5] is 10.1 ×10⁻⁶ cm/s. The results for the remaining at 0.5 h, 1 µM in data set [2], in [3] and in data set [4] were 64%, 88% and 87%, respectively. Besides, half-maximal inhibition in [7] (IC50) was put at 168 nM.

For the compound `CC[C@@H]1C(=O)N(C)c2cnc(-c3c[nH]nc3-c3nccs3)nc2N1C(C)C`, the concentration in solution in [8] (solubility) came to 100 µM (≈ 38.3 µg/mL). In data set [5], the apical-to-basolateral permeability (Papp A→B) at 2 h, 5 µM was found to be 18.3 ×10⁻⁶ cm/s. Besides, the remaining at 0.5 h, 1 µM in [2] stood at 33%; in data set [3], 38%; in data set [4], 38%.

With `CC[C@@H]1C(=O)N(C)c2cnc(-n3ccnc3-c3ccccc3)nc2N1[C@H]1CCOC1`, in [1] (read-out: logP), the logP was determined as 1.9. Besides, the remaining at 0.5 h, 1 µM in [2] stood at 51%; in data set [3] it was 17%; in [4], 13%.

As for `CCC1C(=O)N(C)c2cnc(-n3ccnc3-c3ccccc3)nc2N1c1cncnc1` (racemic), the Papp A→B at 2 h, 5 µM in data set [5] turned out to be 12.2 ×10⁻⁶ cm/s. For the same compound, the IC50 in data set [9] was determined as 3870 nM.

Consider `CC[C@@H]1C(=O)N(C)c2cnc(-n3ccnc3-c3ccc(F)cc3)nc2N1c1cnn(C)c1`, for which, in data set [5], the Papp A→B at 2 h, 5 µM was determined as 21.2 ×10⁻⁶ cm/s. In addition, in data set [1] (read-out: logP), the logP was 2. Also, the remaining at 0.5 h, 1 µM turned out to be 50% in data set [2], 69% in data set [3] and 86% in data set [4].

Take `CC[C@@H]1C(=O)N(C)c2cnc(-n3ccnc3-c3ccc(F)cc3)nc2N1C1CC(F)(F)C1`: the log partition coefficient (logP) in data set [1] (read-out: logP) was found to be 3. Besides, the remaining at 0.5 h, 1 µM in data set [2] came out at 30%; in data set [3] it was 19%; in data set [4], 14%.

In the case of `CC(C)N1c2nc(-n3ccnc3-c3ccc(F)cc3)ncc2N(C)C(=O)C12CCC2`, the figures for the remaining at 0.5 h, 1 µM in data set [2], in data set [3] and in data set [4] were 7%, 4% and 1%, respectively.

For the compound `CC[C@@H]1C(=O)N(C)c2cnc(-n3ccnc3-c3ccccc3)nc2N1c1cncnc1`, in data set [1] (read-out: logP), the logP was determined as 1.3. The remaining at 0.5 h, 1 µM was found to be 60% in [2], 55% in [3] and 76% in data set [4]. The same compound came in with a 50% inhibitory concentration (IC50) in data set [7] of 44 nM.

For the compound `CN1C(=O)C(CC(F)(F)F)N(CCC(F)(F)F)c2nc(-n3ccnc3-c3ccc(F)cc3)ncc21` (racemic), the figures for the remaining at 0.5 h, 1 µM in data set [2], in [3] and in data set [4] were 42%, 15% and 30%, respectively.

For `CCC1C(=O)N(C)c2cnc(-n3ccnc3-c3ccc(F)cc3)nc2N1c1ccc(C#N)cc1` (racemic), in data set [1] (read-out: logP), the lipophilicity (logP) came out at 2.7. The remaining at 0.5 h, 1 µM is 49% in [2], 63% in data set [3] and 48% in data set [4]. This compound yielded an IC50 in [7] of 31 nM.

Turning to `CCC1(C)C(=O)N(C)c2cnc(-n3ccnc3-c3ccc(F)cc3)nc2N1CCC(F)(F)F` (racemic), the remaining at 0.5 h, 1 µM in data set [2] worked out at 29%; in data set [3] it was 17%; in [4], 34%.

Consider `CC[C@@H]1C(=O)N(C)c2cnc(-n3ccnc3-c3ccccc3)nc2N1[C@@H]1CCOC1`, for which the logP in data set [1] (read-out: logP) stood at 1.8. For the same compound, the figures for the remaining at 0.5 h, 1 µM in [2], in data set [3] and in data set [4] were 27%, 10% and 0%, respectively.

`CCC1C(=O)N(C)c2cnc(-n3ccnc3-c3ccc(F)cc3)nc2N1C1CCC(F)(F)C1` (racemic): in data set [1] (read-out: logP), the logP is 3.1. For the same compound, the remaining at 0.5 h, 1 µM in data set [2] was 15%; in data set [3], 6%; in [4], 8%.

In the case of `CCC1C(=O)N(C)c2cnc(-n3ccnc3-c3ccc(F)cc3)nc2N1c1cc[nH]n1` (racemic), in data set [5], the Papp A→B at 2 h, 5 µM was 13.2 ×10⁻⁶ cm/s. For the same compound, the logP in data set [1] (read-out: logP) amounted to 2.2. The remaining at 0.5 h, 1 µM in data set [2] worked out at 67%; in data set [3], 72%; in data set [4], 65%. Moreover, the IC50 in data set [7] came out at 9 nM; in data set [9], 740 nM.

Take `CC[C@@H]1C(=O)N(C)c2cnc(-n3ccnc3-c3ccc(F)cc3)nc2N1CCC(F)(F)F`: the Papp A→B at 2 h, 5 µM in data set [5] was determined as 15.8 ×10⁻⁶ cm/s. Further, the logP in data set [1] (read-out: logP) stood at 3.1. For the same compound, the remaining at 0.5 h, 1 µM in data set [2] came to 32%; in data set [3], 27%; in [4] it was 30%.

Regarding `CC[C@@H]1C(=O)N(C)c2cnc(-n3ccnc3-c3ccccc3)nc2N1CCC(F)(F)F`, the logP in [1] (read-out: logP) turned out to be 3.1. Besides, the remaining at 0.5 h, 1 µM in data set [2] was 2%; in data set [3], 0%; in data set [4] it was 0%.

As to `CCC1C(=O)N(C)c2cnc(-n3ccnc3-c3ccccc3)nc2N1c1ccccc1` (racemic), in data set [1] (read-out: logP), the logP is 3.3. For the same compound, the remaining at 0.5 h, 1 µM worked out at 28% in data set [2], 21% in [3] and 5% in [4]. Also, half-maximal inhibition in data set [7] (IC50) was put at 17 nM.

For the compound `CCC1C(=O)N(C)c2cnc(-n3ccnc3-c3ccc(F)cc3)nc2N1c1ccc(F)cc1` (racemic), in [1] (read-out: logP), the logP was 3.4. The remaining at 0.5 h, 1 µM in data set [2] came out at 41%; in [3], 47%; in data set [4], 11%.

As for `CC[C@@H]1C(=O)N(C)c2cnc(-n3ccnc3-c3ccccc3)nc2N1C1CCCC1`, in data set [8], the concentration in solution (solubility) came to 100 µM (≈ 40.3 µg/mL). Besides, the Papp A→B at 2 h, 5 µM in [5] was 11.4 ×10⁻⁶ cm/s. The remaining at 0.5 h, 1 µM in data set [2], in data set [3] and in [4] was 0% in each case. The compound further gave an IC50 in [7] of 5 nM.

As for `CC[C@@H]1C(=O)N(C)c2cnc(-c3c[nH]nc3-c3ccc(F)cc3F)nc2N1c1cnn(C)c1`, the remaining at 0.5 h, 1 µM in data set [2] amounted to 5%; in data set [3] it was 48%; in [4], 13%. This compound also had an IC50 in data set [7] of 103 nM.

Regarding `CC[C@@H]1C(=O)N(C)c2cnc(-n3ccnc3-c3ccc(F)cc3)nc2N1C1COC1`, the IC50 in [6] is greater than 50000 nM; in data set [7] it was 1040 nM. Also, the logP in data set [1] (read-out: logP) worked out at 1.6. The remaining at 0.5 h, 1 µM turned out to be 74% in [2], 74% in data set [3] and 80% in [4].

In turn, `CCC1C(=O)N(C)c2cnc(-c3cn[nH]c3-c3nccs3)nc2N1c1cnn(C)c1` (racemic) came in with an IC50 in [7] of 130 nM.

As to `CC[C@@H]1C(=O)N(C)c2cnc(-c3cn[nH]c3-c3nccs3)nc2N1C1CCOCC1`, the Papp A→B at 2 h, 5 µM in data set [5] is 18.9 ×10⁻⁶ cm/s. Besides, the remaining at 0.5 h, 1 µM amounted to 44% in [2], 47% in data set [3] and 39% in [4].

On to `CC[C@@H]1C(=O)N(C)c2cnc(-n3ccnc3-c3ccc(F)cc3)nc2N1[C@H]1CCOC1`, for which, in [5], the Papp A→B at 2 h, 5 µM was determined as 23.4 ×10⁻⁶ cm/s. The logP in [1] (read-out: logP) amounted to 2. For the same compound, the remaining at 0.5 h, 1 µM in data set [2] was 63%; in [3] it was 58%; in [4], 67%. For the same compound, the IC50 turned out to be 33 nM in [7] and 2050 nM in data set [9].

Turning to `CC[C@@H]1C(=O)N(C)c2cnc(-c3c[nH]nc3-c3nccs3)nc2N1[C@H]1CCOC1`, the Papp A→B at 2 h, 5 µM in data set [5] was 16.8 ×10⁻⁶ cm/s. The remaining at 0.5 h, 1 µM was 47% in [2], 51% in [3] and 39% in data set [4]. For the same compound, the IC50 in [7] is 39 nM; in [9] it was 3190 nM.

Values taken from ChEMBL document CHEMBL2401733 (Bioorg Med Chem Lett, 2013).
